Source: patent US8268862B2, “Sirtuin modulating compounds” (Sirtris Pharmaceuticals, Inc., priority 2007, dated 2012)

Biological target: T1, SIRT1 (Homo sapiens, UniProt Q96EB6)
T1 sequence (Q96EB6 1-747): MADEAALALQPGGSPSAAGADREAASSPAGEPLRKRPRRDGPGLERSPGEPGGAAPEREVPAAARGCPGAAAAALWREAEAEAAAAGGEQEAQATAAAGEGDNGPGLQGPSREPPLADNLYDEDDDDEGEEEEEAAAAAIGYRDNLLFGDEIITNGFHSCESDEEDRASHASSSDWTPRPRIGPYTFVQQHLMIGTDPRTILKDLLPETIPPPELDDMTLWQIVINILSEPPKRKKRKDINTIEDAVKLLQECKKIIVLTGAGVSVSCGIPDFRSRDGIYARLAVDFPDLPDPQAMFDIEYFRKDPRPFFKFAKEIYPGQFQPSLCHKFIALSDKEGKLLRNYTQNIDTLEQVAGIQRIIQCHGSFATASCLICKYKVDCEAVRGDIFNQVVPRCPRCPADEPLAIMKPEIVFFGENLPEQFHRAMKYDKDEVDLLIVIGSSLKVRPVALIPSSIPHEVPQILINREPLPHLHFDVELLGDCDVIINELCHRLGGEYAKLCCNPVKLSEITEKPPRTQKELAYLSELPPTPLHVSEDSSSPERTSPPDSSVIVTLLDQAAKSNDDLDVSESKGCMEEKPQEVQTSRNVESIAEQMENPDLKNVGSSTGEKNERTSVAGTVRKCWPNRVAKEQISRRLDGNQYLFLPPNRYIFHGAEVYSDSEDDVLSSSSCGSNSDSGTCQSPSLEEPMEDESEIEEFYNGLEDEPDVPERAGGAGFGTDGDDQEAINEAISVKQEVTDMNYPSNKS
Assay: mass spectrometry based SIRT1 deacetylation assay (activation)
Format: biochemical
Conditions: 0.5 μM peptide substrate, 120 μM βNAD+, 10 nM SIRT1, 25 min at 25° C.; for EC1.5 (concentration of test compound that results in 150% activation of SIRT1): NA = not active in the assay; for Emax: read-out: % FOLD ACT. (percent maximum fold activation of SIRT1)
Text: A mass spectrometry based assay was used to identify modulators of SIRT1 activity. The mass spectrometry based assay utilizes a peptide having 20 amino acid residues as follows: Ac-EE-K(biotin)-GQSTSSHSK(Ac)NleSTEG-K(5TMR)-EE-NH2 (SEQ ID NO: 1) wherein K(Ac) is an acetylated lysine residue and Nle is a norleucine. The peptide is labeled with the fluorophore 5TMR (excitation 540 nm/emission 580 nm) at the C-terminus. The sequence of the peptide substrate is based on p53 with several modifications. In addition, the methionine residue naturally present in the sequence was replaced with the norleucine because the methionine may be susceptible to oxidation during synthesis and purification.
Test compounds may be added to the reaction as described above. […] After the 25 minute incubation with SIRT1, 10 μL of 10% formic acid is added to stop the reaction. Reactions are sealed and frozen for later mass spec analysis. Determination of the mass of the substrate peptide allows for precise determination of the degree of acetylation (i.e. starting material) as compared to deacetylated peptide (product).
A control for inhibition of sirtuin activity is conducted by adding 1 μL of 500 mM nicotinamide as a negative control at the start of the reaction (e.g., permits determination of maximum sirtuin inhibition). A control for activation of sirtuin activity is conducted using 10 nM of sirtuin protein, with 1 μL of DMSO in place of compound, to determine the amount of deacetylation of the substrate at a given timepoint within the linear range of the assay. This timepoint is the same as that used for test compounds and, within the linear range, the endpoint represents a change in velocity.
For the above assay, SIRT1 protein was expressed and purified as follows. […] The protein was expressed by induction with 1 mM IPTG as an N-terminal His-tag fusion protein at 18° C. overnight and harvested at 30,000×g. Cells were lysed with lysozyme in lysis buffer (50 mM Tris-HCl, 2 mM Tris[2-carboxyethyl]phosphine (TCEP), 10 μM ZnCl2, 200 mM NaCl) and further treated with sonication for 10 min for complete lysis. The protein was purified over a Ni-NTA column (Amersham) and fractions containing pure protein were pooled, concentrated and run over a sizing column (Sephadex S200 26/60 global). The peak containing soluble protein was collected and run on an Ion-exchange column (MonoQ). Gradient elution (200 mM-500 mM NaCl) yielded pure protein. This protein was concentrated and dialyzed against dialysis buffer (20 mM Tris-HCl, 2 mM TCEP) overnight. The protein was aliquoted and frozen at −80° C. until further use.
Sirtuin modulating compounds that activated SIRT1 were identified using the assay described above and are shown below in Table 3. The EC1.5 values represent the concentration of test compounds that result in 150% activation of SIRT1. NT means that the compound was not tested using the indicated assay. NA means that the compound was not active in the indicated assay.

| EC1.5 (concentration of test compound that results in 150% activation of SIRT1) [NM] | Emax [%] | % FOLD ACT. (percent maximum fold activation of SIRT1) [%] | Structure (SMILES) |
| --- | --- | --- | --- |
| 665 | 281 | – | O=C(Nc1ccccc1-c1nc2cc(CN3CCOCC3)cnc2s1)c1cccc(-c2cccnc2)c1 [Compound 5] |
| 249 | 550 | – | NC1CCN(Cc2cnc3sc(-c4ccccc4NC(=O)c4cccc(-c5ccncc5)c4)nc3c2)CC1 [Compound 12] |
| 674 | 443 | – | O=C(Nc1ccccc1-c1nc2cc(CN3CCOCC3)cnc2s1)c1ccn(-c2ccccc2)n1 [Compound 156] |
| – | 131 | – | O=C(Nc1ccccc1-c1nc2cc(CN3CCC(F)(F)CC3)cnc2s1)c1ccc2ccccc2n1 [Compound 102] |
| 230 | 307 | – | O=C(Nc1ccccc1-c1nc2cc(CN3CC[C@H](O)C3)cnc2s1)c1ccc2ccccc2n1 [Compound 110] |
| 592 | 231 | – | O=C(Nc1ccccc1-c1nc2cc(CN3CCNCC3)cnc2s1)c1cc(-c2ccccc2)no1 [Compound 62] |
| – | 143 | – | O=C(Nc1ccccc1-c1nc2cc(CN3CCOCC3)cnc2s1)c1cn2cc(Cl)ccc2n1 [Compound 127] |
| 507 | 422 | – | O=C(Nc1ccccc1-c1nc2cc(CN[C@H]3CCNC3)cnc2s1)c1cccc(-c2ccccn2)c1 [Compound 37] |
| – | 100 | – | O=C(Nc1ccccc1-c1nc2cc(CN3CCCC(F)(F)C3)cnc2s1)c1ccc2ccccc2n1 [Compound 118] |
| 144 | 477 | – | O=C(Nc1ccccc1-c1nc2cc(CN3CCCC3)cnc2s1)c1cccc(-c2ccccc2)n1 [Compound 60] |
| 687 | > 500 | – | O=C(Nc1ccccc1-c1nc2ccc(CN3CCNCC3)nc2s1)c1ccc2ccccc2n1 [Compound 69] |
| 1590 | 292 | – | COc1cc(C(=O)Nc2ccccc2-c2nc3cc(CN4CCOCC4)cnc3s2)nc2ccccc12 [Compound 105] |
| 480 | 324 | – | O=C(Nc1ccccc1-c1nc2cc(CN[C@H]3CC[C@H](O)CC3)cnc2s1)c1ccc2ccccc2n1 [Compound 117] |
| 182 | 397 | – | O=C(Nc1ccccc1-c1nc2cc(CN3CCOCC3)cnc2s1)c1cccc(-n2cccn2)c1 [Compound 40] |
| 1460 | 304 | – | O=C(Nc1ccccc1-c1nc2cc(CN3CCNCC3)cnc2s1)c1ccn(-c2ccccc2)n1 [Compound 71] |
| 1060 | 314 | – | O=C(Nc1ccccc1-c1nc2cc(CN3CCNCC3)cnc2s1)c1cn2cc(F)ccc2n1 [Compound 124] |
| 3920 | 204 | – | O=C(Nc1ccccc1-c1nc2cc(CN3CCOCC3)cnc2s1)c1cccc(-c2nnn[nH]2)c1 [Compound 77] |
| 14 | 272 | – | COCCN1CCN(Cc2cnc3sc(-c4ccccc4NC(=O)c4cc(-c5ccccc5)cn4C)nc3c2)CC1 [Compound 88] |
| 1950 | 241 | – | CC(C)NCc1cnc2sc(-c3ccccc3NC(=O)c3cccc(-c4cccnc4)c3)nc2c1 [Compound 23] |

| EC1.5 (concentration of test compound that results in 150% activation of SIRT1) [NM] | Emax [%] | % FOLD ACT. (percent maximum fold activation of SIRT1) [%] | Structure (SMILES) |
| --- | --- | --- | --- |
| 1610 | 427 | – | O=C(Nc1ccccc1-c1nc2cc(CN3CCOCC3)cnc2s1)c1cn2ccccc2n1 [Compound 111] |
| 492 | 279 | – | COCCN1CCN(Cc2cnc3sc(-c4ccccc4NC(=O)c4cccc(-c5ccncc5)c4)nc3c2)CC1 [Compound 59] |
| – | 100 | – | O=C(Nc1ccccc1-c1nc2cc(CN3CCNCC3)cnc2s1)c1nc2ccc(F)cc2o1 [Compound 126] |
| 162 | 906 | – | NC1CCN(Cc2cnc3sc(-c4ccccc4NC(=O)c4cccc(-c5ccccn5)c4)nc3c2)CC1 [Compound 21] |
| 78 | 578 | – | NC1CCN(Cc2cnc3sc(-c4ccccc4NC(=O)c4cccc(-c5ccccc5)c4)nc3c2)CC1 [Compound 11] |
| – | 100 | – | Cc1nc(-c2cccnc2)sc1C(=O)Nc1ccccc1-c1nc2cc(CN3CCOCC3)cnc2s1 [Compound 80] |
| – | 137 | – | COCCN1CCN(Cc2cnc3sc(-c4ccccc4NC(=O)c4cc(-c5ccccc5)ccn4)nc3c2)CC1 [Compound 86] |
| 395 | 222 | – | O=C(Nc1ccccc1-c1nc2cc(CN3CCOCC3)cnc2s1)c1cccc(-c2ccccc2F)c1 [Compound 48] |
| 357 | 411 | – | O=C(Nc1ccccc1-c1nc2cc(CN3CCOCC3)cnc2s1)c1cccc(-c2ccccc2F)n1 [Compound 52] |
| – | 100 | – | O=C(Nc1ccccc1-c1nc2cc(CN3CCOCC3)cnc2s1)c1cnc2ccccc2n1 [Compound 65] |
| 990 | 161 | – | COCCN1CCN(Cc2cnc3sc(-c4ccccc4NC(=O)c4cnc5ccccc5n4)nc3c2)CC1 [Compound 130] |
| – | 298 | – | O=C(Nc1ccccc1-c1nc2cc(CN3CCNCC3)cnc2s1)c1ccc2ncsc2c1 [Compound 70] |
| 2790 | 285 | – | O=C(Nc1ccccc1-c1nc2cc(CN3CCNCC3)cnc2s1)c1cccc(-c2nnn[nH]2)c1 [Compound 76] |
| 160 | 252 | – | O=C(Nc1ccccc1-c1nc2cc(CN3CCCC3)cnc2s1)c1ccc2ccccc2n1 [Compound 95] |
| 390 | – | >500 | N[C@@H]1CCN(Cc2cnc3sc(-c4ccccc4NC(=O)c4ccc5ccccc5n4)nc3c2)C1 [Compound 119] |
| 469 | 203 | – | O=C(Nc1ccccc1-c1nc2cc(CN3CC[C@@H](F)C3)cnc2s1)c1cccc(-c2ccccc2)c1 [Compound 25] |
| 554 | 234 | – | COCCN1CCN(Cc2cnc3sc(-c4ccccc4NC(=O)c4cncc(-c5ccccc5)c4)nc3c2)CC1 [Compound 35] |
| 41 | > 500 | – | COCCN1CCN(Cc2cnc3sc(-c4ccccc4NC(=O)c4cccc(-c5cccc(F)c5)n4)nc3c2)CC1 [Compound 57] |
| 1640 | 172 | – | O=C(Nc1ccccc1-c1nc2cc(CN3CCOCC3)cnc2s1)c1cncc(-c2cccc(F)c2)c1 [Compound 51] |
